Results published in US20250199015A1, “CYCLIN-DEPENDENT KINASE 2 INHIBITORS FOR MEDICAL TREATMENT” (INCYCLIX BIO, LLC, priority 2022, published 2025).
“Also recorded” adds a separate entry of the source.

Experiments:
γ-H2AX in Hs68 cells = assay: γ-H2AX flow cytometry in normal fibroblasts; assay type: cell-based, human; details: 300 nM, alone or in combination with cisplatin, 24 hours
Protocol: The Hs68 Normal foreskin fibroblast cell line was grown in DMEM-high glucose/1× Glutamax/10% fetal bovine serum and was plated at 30,000 cells/well in Corning 6 well tissue culture treated plates. Cells were incubated at 37° C. for 24 hours prior to addition of the first treatment. […] Cells were treated to 24 hours post-initial treatment, with 10 μM EdU added at hour 23. Cells were collected and fixed in 1% paraformaldehyde. Cells were incubated with pacific blue azide dye as described by Thermo Scientific. Cells were then incubated with antibody against γ-H2AX at a ratio of 1:50 before incubation with FarRed dye and RNase. Cells were analyzed on a BD Celesta and data compiled using FloJo and GraphPad (FIG. 6).

[1] = test system: BT474 human breast carcinoma cells; assay: Crystal violet colony assay; assay type: cell-based
Protocol: The T47D human breast carcinoma cell line was grown in RPMI-1640/1× Glutamax/1× Insulin/10% fetal bovine serum and was plated at 10,000 cells/well in Corning 6 well tissue culture treated plates. The BT474 human breast carcinoma cell line was grown in DMEM/1× Glutamax/1× Insulin/10% fetal bovine serum and was plated at 25,000 cells/well in Corning 6 well tissue culture treated plates. Cells were incubated at 37° C. for 24 hours prior to addition of treatment. […] Plates were collected at week 2 and 3, at week 3, 2 plates with only CDK4/6i were switched to combination treatment. The remaining plates were collected at weeks 5 and 8. Collection was performed by washing wells with PBS before incubating 5 minutes with 0.1% crystal violet/20% methanol. Dye was removed and wells washed 4 times with PBS before being scanned at 1200 dpi. Image J was used to count the % area and colony size for each well. Graph pad was used for analysis.

PA-1 cells = assay: CellTiter Glo cell proliferation assay; assay type: cell-based; details: lacking cyclin E amplification
Protocol: (§1) Plates were returned to the incubator for six additional days. On day six post dosing, plates were removed and treated with CellTiter Glo reagent following manufacturer's specifications. Plates were incubated 45 minutes at room temperature and run on Biotek luminometer with 1 sec/well detection. Results were converted to Microsoft Excel and transferred to Graphpad Prism for analysis. […] These cell types are distinguished by either gained of cyclin E1 expression or activation (Kuramochi) or intrinsic amplification of cyclin E1 (OVCAR-3, COV318).

SKOV3 cells = assay: CellTiter Glo cell proliferation assay; assay type: cell-based; details: lacking cyclin E amplification
Protocol: as §1

COV318 cells = assay: Cell cycle by EdU flow cytometry; assay type: cell-based, human; details: 10 nM to 10 μM, 24 hours
Protocol: Cells were plated at 100,000 cells/well in Corning 6 cm tissue culture treated plates. […] Cells were collected and fixed in 1% paraformaldehyde. Cells were incubated with Alexa488 azide dye as described by Thermo Scientific. Cells were then incubated with […]-violet and RNase. Cells were analyzed on a BD Celesta and data compiled using FloJo and GraphPad.

OVCAR-3 xenograft tumor = OVCAR-3 xenograft tumor fragment model (tumor growth, survival); assay type: in vivo, mice; details: 100 mpk twice daily
Protocol: OVCAR-3 xenograft tumor fragments were harvested from host animals and implanted into immune-deficient mice (CR1:NU(NCr)-Fox1^nu). The study was initiated at a mean tumor volume of approximately 175-300 mm^3. […] The test agents were delivered at 10 mL/kg by oral gavage. […] Individual replicate values over the course of the experiment are shown in FIG. 19A, extended out to 42 days post-study initiation.

[2] = test system: caspase 3/7 in H526 cells; assay: CaspaseGlo-3/7 activation; assay type: cell-based, human
Protocol: (§2) Plates were removed from incubator and treated with CaspaseGlo-3/7 (Promega, Inc) following manufacturer specifications. Plates were then read on a Biotech luminometer with 1 sec/well integration. Results were converted to Microsoft Excel and transferred to GraphPad Prism for Analysis (FIG. 22D).
as §2, with “from the” for “from”, “incubator at each specified timepoint” for “incubator”, “on” for “on a”, “27A-C).” for “22D).”

[3] = Electrocardiogram evaluations in 28-day repeat-dose toxicity study; assay type: in vivo, dogs; details: any dose level
Source text: Safety pharmacology studies described more fully below included a functional observational battery (FOB) testing in a 28-day repeat-dose toxicity study in rats, electrocardiogram (ECG) evaluations in a 28-day repeat-dose toxicity study in dogs, and a single-dose respiratory safety pharmacology study in rats.

BCRP = target: T1, BCRP (Homo sapiens, UniProt Q9UNQ0); assay: ABC transporter inhibition, inside-out membrane vesicles; assay type: in vitro ADME
T1 construct: expressed in transfected cells; inside-out membrane vesicles
T1 sequence (Q9UNQ0 whole entry): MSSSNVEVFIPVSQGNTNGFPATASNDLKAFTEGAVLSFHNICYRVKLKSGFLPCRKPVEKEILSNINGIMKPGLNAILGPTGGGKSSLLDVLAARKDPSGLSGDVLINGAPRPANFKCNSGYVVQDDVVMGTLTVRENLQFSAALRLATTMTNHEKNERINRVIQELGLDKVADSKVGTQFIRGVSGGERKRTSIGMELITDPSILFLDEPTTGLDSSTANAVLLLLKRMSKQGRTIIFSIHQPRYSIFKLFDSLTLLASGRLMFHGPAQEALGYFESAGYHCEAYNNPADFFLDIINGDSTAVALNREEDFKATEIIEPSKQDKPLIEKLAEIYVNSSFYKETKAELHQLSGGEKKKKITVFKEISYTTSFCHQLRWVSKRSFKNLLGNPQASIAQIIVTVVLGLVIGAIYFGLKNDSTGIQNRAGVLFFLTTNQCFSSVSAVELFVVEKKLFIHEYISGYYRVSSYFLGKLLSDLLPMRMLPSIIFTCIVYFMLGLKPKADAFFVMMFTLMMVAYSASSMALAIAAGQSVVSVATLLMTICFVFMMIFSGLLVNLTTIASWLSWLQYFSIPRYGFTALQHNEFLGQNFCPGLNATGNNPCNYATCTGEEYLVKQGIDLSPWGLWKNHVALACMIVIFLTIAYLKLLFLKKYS
Protocol: The reaction was initiated with the addition of ATP or AMP to the solution and following the incubation time, the reaction was stopped by the addition of 200 μL of ice-cold washing buffer and immediate filtration via glass fiber filters mounted to a 96-well plate (filter plate). The filters were washed, dried, and the amount of substrate inside the filtered vesicles was determined by liquid scintillation counting. E3S (1 μM; Sigma-Aldrich E0251) for BCRP was used as positive control substrates.

human OAT1 = target: T2, human OAT1 (Homo sapiens, UniProt Q4U2R8); assay: SLC transporter inhibition in HEK293 cells; assay type: in vitro ADME
T2 construct: expressed in transfected cells; host or cells: HEK293
T2 sequence (Q4U2R8 whole entry): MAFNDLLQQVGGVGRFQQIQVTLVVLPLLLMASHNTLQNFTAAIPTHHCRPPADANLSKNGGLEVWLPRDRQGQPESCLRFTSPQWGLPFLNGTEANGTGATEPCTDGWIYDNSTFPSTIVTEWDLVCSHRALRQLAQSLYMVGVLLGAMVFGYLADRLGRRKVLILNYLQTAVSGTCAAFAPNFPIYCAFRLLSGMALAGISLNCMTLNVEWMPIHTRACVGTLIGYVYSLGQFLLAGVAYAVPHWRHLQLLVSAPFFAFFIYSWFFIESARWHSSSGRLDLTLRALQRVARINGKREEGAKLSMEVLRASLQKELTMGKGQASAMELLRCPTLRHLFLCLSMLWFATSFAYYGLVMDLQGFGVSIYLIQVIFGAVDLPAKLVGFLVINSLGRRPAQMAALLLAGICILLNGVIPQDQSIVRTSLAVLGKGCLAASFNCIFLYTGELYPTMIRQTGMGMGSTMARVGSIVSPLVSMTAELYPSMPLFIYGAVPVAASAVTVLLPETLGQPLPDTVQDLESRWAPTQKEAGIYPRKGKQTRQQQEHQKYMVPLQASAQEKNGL

[4] = target: bile salt export pump (BSEP) (Homo sapiens, UniProt O95342); assay: Transporter inhibition; assay type: in vitro ADME
Sequence of bile salt export pump (BSEP) (O95342 whole entry): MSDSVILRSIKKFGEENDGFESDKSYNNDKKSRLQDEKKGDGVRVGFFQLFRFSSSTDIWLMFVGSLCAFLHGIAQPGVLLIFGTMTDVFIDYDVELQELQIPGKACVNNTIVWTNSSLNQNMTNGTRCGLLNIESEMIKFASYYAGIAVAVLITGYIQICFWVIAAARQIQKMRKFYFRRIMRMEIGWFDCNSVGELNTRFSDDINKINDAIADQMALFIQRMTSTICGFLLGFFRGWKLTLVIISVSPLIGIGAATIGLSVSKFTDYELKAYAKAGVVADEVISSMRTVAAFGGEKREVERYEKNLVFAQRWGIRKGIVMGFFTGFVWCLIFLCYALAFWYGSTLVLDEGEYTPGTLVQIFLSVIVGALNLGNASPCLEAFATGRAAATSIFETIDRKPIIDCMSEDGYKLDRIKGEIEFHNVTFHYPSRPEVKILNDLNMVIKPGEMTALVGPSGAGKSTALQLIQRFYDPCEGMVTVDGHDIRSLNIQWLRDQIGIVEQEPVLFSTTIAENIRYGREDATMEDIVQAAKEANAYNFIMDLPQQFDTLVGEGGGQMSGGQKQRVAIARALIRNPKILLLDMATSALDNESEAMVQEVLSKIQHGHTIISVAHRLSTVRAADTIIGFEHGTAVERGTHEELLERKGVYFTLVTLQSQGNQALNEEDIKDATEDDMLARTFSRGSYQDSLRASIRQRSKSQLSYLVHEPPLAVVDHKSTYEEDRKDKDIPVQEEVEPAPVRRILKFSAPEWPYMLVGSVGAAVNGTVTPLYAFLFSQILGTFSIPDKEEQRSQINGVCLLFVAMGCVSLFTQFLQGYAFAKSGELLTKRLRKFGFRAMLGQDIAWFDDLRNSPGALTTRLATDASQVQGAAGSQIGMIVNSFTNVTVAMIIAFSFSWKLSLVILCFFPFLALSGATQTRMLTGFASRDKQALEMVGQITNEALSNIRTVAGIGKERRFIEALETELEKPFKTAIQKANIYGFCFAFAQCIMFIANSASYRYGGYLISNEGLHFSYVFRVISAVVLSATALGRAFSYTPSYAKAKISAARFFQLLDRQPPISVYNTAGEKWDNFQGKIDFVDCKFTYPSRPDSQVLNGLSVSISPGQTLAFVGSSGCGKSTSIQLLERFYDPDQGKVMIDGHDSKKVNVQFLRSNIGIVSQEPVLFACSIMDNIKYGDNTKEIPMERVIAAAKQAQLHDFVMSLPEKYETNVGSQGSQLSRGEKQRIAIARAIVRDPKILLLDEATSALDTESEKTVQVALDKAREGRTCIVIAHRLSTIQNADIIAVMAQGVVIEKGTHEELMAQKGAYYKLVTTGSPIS

## NS(=O)(=O)c1ccc(Nc2ncc3cc4n(c3n2)C2(CCCCC2)C(=O)NN4)cc1 [Compound I]
γ-H2AX in Hs68 cells
  percent of γ-H2AX-positive cells: lower percent of γ-H2AX-positive cells compared with control
[1]; 300 nM each, 8 weeks
  growth with both Compound I and a CDK4/6i: no noticeable growth after 8 weeks
[1]; 300 nM with palbociclib or abemaciclib, up to 8 weeks
  time to CDK4/6i resistance: prolonged the time to CDK4/6i resistance
PA-1 cells
  inhibition compared with palbociclib: comparable to palbociclib alone
SKOV3 cells
  inhibition compared with palbociclib: comparable to palbociclib alone
COV318 cells
  cell cycle distribution with increasing concentrations: exit the S-phase and increasingly occupy the G0-G1 phase
OVCAR-3 xenograft tumor
  overall survival: greatest overall survival
OVCAR-3 xenograft tumor; oral gavage, 28 days
  tumor volume: reduced tumor volume the most among all treatment conditions
[2]; 24 hours
  caspase 3/7 activation: no appreciable caspase 3/7 activation
[2]; 72 hours
  IC50: 129 nM
[2]; Homo sapiens, NCI-H526, 48 h, 48 hours
  IC50: 181 nM
[2]; Homo sapiens, NCI-H526, 72 h, 72 hours
  IC50: 116 nM
[3]
  ECGs: did not affect; also recorded: within normal limits
BCRP; BCRP, inside-out membrane vesicles
  IC50: 422 nM
BCRP; human, inside-out membrane vesicles from cells overexpressing BCRP, probe E3S (1 μM)
  IC50: 422 nM
Human OAT1
  OAT1 inhibition: did not inhibit
Human OAT1; OAT1, HEK293 cells
  Maximum Percent inhibition: 30%
[4]
  BSEP inhibition: did not inhibit
